Experimental data from US8569313B2, “Meta-substituted phenyl sulfonyl amides of secondary amino acid amides, the production thereof, and use thereof as matriptase inhibitors” (The Medicines Company (Leipzig) GmbH, priority 2007, dated 2013).
pKi: −log10 of the molar value.

Target: matriptase (Homo sapiens (Human), UniProt Q9Y5Y6)
Assay: Determination of the matriptase inhibition (chromogenic substrate CH3SO2-D-Cha-Gly-Arg-pNA, Dixon Ki)
Format: biochemical
Settings: 25° C., pH 8.0; means of at least two determinations
Experimental: Determination of the Matriptase Inhibition
To determine the inhibition effect, 200 μl Tris buffer (inhibitor contains 0.05 M, 0.154 M NaCl, 5% ethanol, pH 8.0), 25 μl substrate (CH3SO2-D-Cha-Gly-Arg-pNA; 2 and 1 mM) and 50 μl matriptase (0.5 μg/ml) were incubated at 25° C. After 3 min the reaction was halted through the addition of 25 μl acetic acid (50%) and the Absorption determined at 405 nm by means of a Microplate Reader (Multiscan Ascent from the company Thermo Electron Corporation). The Ki values were calculated according to Dixon (Biochem. J. 55, 170-171, 1953) through linear regression by means of a computer program. The Ki-values are the means of at least two determinations.
Ki value for the inhibition of matriptase in nM (n.d.=not determined)

Chain of matriptase (Q9Y5Y6 whole entry): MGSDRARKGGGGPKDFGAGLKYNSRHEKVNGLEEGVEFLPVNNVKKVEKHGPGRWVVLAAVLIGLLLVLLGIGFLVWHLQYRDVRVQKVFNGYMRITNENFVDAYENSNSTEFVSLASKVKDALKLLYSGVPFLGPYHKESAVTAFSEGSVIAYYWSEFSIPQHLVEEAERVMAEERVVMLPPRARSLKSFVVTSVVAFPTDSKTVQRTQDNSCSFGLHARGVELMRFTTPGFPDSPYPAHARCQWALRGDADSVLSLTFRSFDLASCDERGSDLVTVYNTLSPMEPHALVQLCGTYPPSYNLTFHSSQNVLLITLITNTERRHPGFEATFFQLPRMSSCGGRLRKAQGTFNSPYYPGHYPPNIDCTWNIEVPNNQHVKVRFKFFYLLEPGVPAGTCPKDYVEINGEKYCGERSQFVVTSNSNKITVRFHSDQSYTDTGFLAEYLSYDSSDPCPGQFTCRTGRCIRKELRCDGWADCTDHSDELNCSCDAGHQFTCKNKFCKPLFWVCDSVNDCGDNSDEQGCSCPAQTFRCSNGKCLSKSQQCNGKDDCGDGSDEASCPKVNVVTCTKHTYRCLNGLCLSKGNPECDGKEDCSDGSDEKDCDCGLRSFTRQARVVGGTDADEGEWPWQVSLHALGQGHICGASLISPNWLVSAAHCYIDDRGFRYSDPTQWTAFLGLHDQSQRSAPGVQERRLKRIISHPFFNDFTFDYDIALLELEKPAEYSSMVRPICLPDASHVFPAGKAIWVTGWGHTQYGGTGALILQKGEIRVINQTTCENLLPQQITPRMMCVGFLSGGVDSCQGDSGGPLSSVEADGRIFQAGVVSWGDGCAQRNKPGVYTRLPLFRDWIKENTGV

Compound | pKi
N=C(N)c1cccc(C[C@H](NS(=O)(=O)c2cccc(CCCCN)c2)C(=O)N2CCC(CCN)CC2)c1 [Inhibitor 16, 3-(1-aminobutyl)-phenyl sulfonyl-Phe(3-Amidino)-4-(2-aminoethyl)piperidide] | 9.13
COc1ccc(-c2cccc(S(=O)(=O)NC(Cc3cccc(C(=N)N)c3)C(=O)N3CCC(CCN)CC3)c2)cc1 (stereo not drawn) [Inhibitor 3] | 8.22
N=C(N)c1cccc(CC(NS(=O)(=O)c2cccc(-c3ccccc3Cl)c2)C(=O)N2CCC(CCN)CC2)c1 (stereo not drawn) [Inhibitor 9] | 7.54
CCc1ccc(-c2cccc(S(=O)(=O)N[C@@H](Cc3cccc(C(=N)N)c3)C(=O)N3CCC(CCCC(=O)NC)CC3)c2)cc1 [Inhibitor 19] | 7.61
Cc1nccc(-c2cccc(S(=O)(=O)N[C@@H](Cc3cccc(C(=N)N)c3)C(=O)N3CCC(CCN)CC3)c2)n1 [Inhibitor 12] | 7.55
N=C(N)c1cccc(CC(NS(=O)(=O)c2cccc(-c3ccc4[nH]ccc4c3)c2)C(=O)N2CCC(CCN)CC2)c1 (stereo not drawn) [Inhibitor 13] | 7.89
N=C(N)c1cccc(C[C@H](NS(=O)(=O)c2cccc(NC(=O)CCN)c2)C(=O)N2CCC(C(=O)OCc3ccccc3)CC2)c1 [Inhibitor 48] | 9.15
N=C(N)c1cccc(CC(NS(=O)(=O)c2cccc(-c3ccc(N)nc3)c2)C(=O)N2CCC(CCN)CC2)c1 (stereo not drawn) [Inhibitor 14] | 8.38
N=C(N)c1cccc(C[C@H](NS(=O)(=O)c2cccc(NC(=O)CCN)c2)C(=O)N2CCC(C(N)=O)CC2)c1 [Inhibitor 23] | 7.92
CCOc1ccc(-c2cccc(S(=O)(=O)N[C@@H](Cc3cccc(C(=N)N)c3)C(=O)N3CCC(CCCC(=O)NC)CC3)c2)cc1 [Inhibitor 18] | 8.09
N=C(N)c1cccc(CC(NS(=O)(=O)c2cccc(C3CCC(N)=NC3)c2)C(=O)N2CCC(CCN)CC2)c1 (stereo not drawn) [Inhibitor 15] | 10.16
COc1ccc(-c2cccc(S(=O)(=O)NC(Cc3cccc(C(=N)N)c3)C(=O)N3CCC(CCN)CC3)c2)cc1OC (stereo not drawn) [Inhibitor 1, 3-(3,4-dimethoxyphenyl)phenyl sulfonyl-d/l-Phe(3-Am)-4-(2-aminoethyl)piperidide] | 8.27
CCc1ccc(-c2cccc(S(=O)(=O)NC(Cc3cccc(C(=N)N)c3)C(=O)N3CCC(CCN)CC3)c2)cc1 (stereo not drawn) [Inhibitor 5] | 8.60
N=C(N)c1cccc(C[C@H](NS(=O)(=O)c2cccc(NC(=O)CCN)c2)C(=O)N2CCC(CCCC(=O)O)CC2)c1 [Inhibitor 22] | 6.59
N=C(N)c1cccc(CC(NS(=O)(=O)c2cccc(-c3cccnc3)c2)C(=O)N2CCC(CCN)CC2)c1 (stereo not drawn) [Inhibitor 11] | 7.33
N=C(N)c1cccc(CC(NS(=O)(=O)c2cccc(-c3cccc(Cl)c3)c2)C(=O)N2CCC(CCN)CC2)c1 (stereo not drawn) [Inhibitor 8] | 7.04
N=C(N)c1cccc(C[C@H](NS(=O)(=O)c2cccc(NC(=O)CCN)c2)C(=O)N2CCCC(C(N)=O)C2)c1 (stereo partly drawn) [Inhibitor 24] | 7.52
CNC(=O)CCCC1CCN(C(=O)[C@H](Cc2cccc(C(=N)N)c2)NS(=O)(=O)c2cccc(NC(=O)CCN)c2)CC1 [Inhibitor 17, N-(3-β-Ala)amidophenyl sulfonyl-Phe(3-Am)-piperidine buteryl-N-methylamide] | 8.20
N=C(N)c1cccc(C[C@H](NS(=O)(=O)c2cccc(NC(=O)CCN)c2)C(=O)N2CCC(CCCC(N)=O)CC2)c1 [Inhibitor 21] | 7.93
N=C(N)c1cccc(CC(NS(=O)(=O)c2cccc(-c3ccc(Cl)cc3)c2)C(=O)N2CCC(CCN)CC2)c1 (stereo not drawn) [Inhibitor 7] | 7.59
N=C(N)c1cccc(CC(NS(=O)(=O)c2cccc(-c3ccccc3)c2)C(=O)N2CCC(CCN)CC2)c1 (stereo not drawn) [Inhibitor 2] | 7.00
N=C(N)c1cccc(CC(NS(=O)(=O)c2cccc(-c3ccncc3)c2)C(=O)N2CCC(CCN)CC2)c1 (stereo not drawn) [Inhibitor 10] | 7.22
COC(=O)CCCC1CCN(C(=O)[C@H](Cc2cccc(C(=N)N)c2)NS(=O)(=O)c2cccc(NC(=O)CCN)c2)CC1 [Inhibitor 20] | 8.21
H-βAla-3-NH-phenyl sulfonyl-Phe(3-Am)-4-piperidyl-(CH2)3—CONH—(CH2)2-PEG10000-CH3 [Inhibitor 50] | 7.27
CC(C)Oc1ccc(-c2cccc(S(=O)(=O)NC(Cc3cccc(C(=N)N)c3)C(=O)N3CCC(CCN)CC3)c2)cc1 (stereo not drawn) [Inhibitor 6] | 7.92
CCOc1ccc(-c2cccc(S(=O)(=O)NC(Cc3cccc(C(=N)N)c3)C(=O)N3CCC(CCN)CC3)c2)cc1 (stereo not drawn) [Inhibitor 4] | 8.27

Next, values leading:

pKi | Compound
6.84 | COc1ccc(-c2cccc(S(=O)(=O)NC(Cc3cccc(CN)c3)C(=O)N3CCC(CCN)CC3)c2)cc1 (stereo not drawn) [Inhibitor 35]
8.77 | N=C(N)c1cccc(C[C@H](NS(=O)(=O)c2cccc(NC(=O)C3CNC3)c2)C(=O)N2CCC(CCN)CC2)c1 [Inhibitor 40]
7.06 | CNC(=O)CCCC1CCN(C(=O)[C@H](Cc2cccc(C(=N)N)c2)NS(=O)(=O)c2cccc(-c3ccc(C(C)(C)C)cc3)c2)CC1 [Inhibitor 41]
7.01 | CNC(=O)CCCC1CCN(C(=O)C(Cc2cccc(C(=N)N)c2)NS(=O)(=O)c2cccc(-n3ncccc3=O)c2)CC1 (stereo not drawn) [Inhibitor 29]
7.35 | NCCC(=O)Nc1cccc(S(=O)(=O)N[C@@H](Cc2cccc(CN)c2)C(=O)N2CCN(C(=O)OCc3ccccc3)CC2)c1 [Inhibitor 36]
4.62 | CCc1ccc(-c2cccc(S(=O)(=O)N[C@@H](Cc3cccc(/C(N)=N\O)c3)C(=O)N3CCC(CCCC(=O)NC)CC3)c2)cc1 [Inhibitor 33]
8.21 | N=C(N)c1cccc(C[C@H](NS(=O)(=O)c2cccc(NC(=O)CCN)c2)C(=O)N2CCN(C(=O)OCc3ccccc3)CC2)c1 [Inhibitor 26]
9.31 | CNC(=O)CCCC1CCN(C(=O)[C@H](Cc2cccc(C(=N)N)c2)NS(=O)(=O)c2cccc(C3CCC(N)=NC3)c2)CC1 (stereo partly drawn) [Inhibitor 47]
7.25 | NCCC(=O)Nc1cccc(S(=O)(=O)N[C@@H](Cc2cccc(CN)c2)C(=O)N2CCC(CCN)CC2)c1 [Inhibitor 34, H-βAla-3-NH-phenyl sulfonyl-Phe(3-Ame)-(2-aminoethyl)piperidide]
7.49 | N=C(N)c1cccc(C[C@H](NS(=O)(=O)c2cccc(NC(=O)CCN)c2)C(=O)N2CCCCC2)c1 [Inhibitor 28]
7.44 | N=C(N)c1cccc(C[C@H](NS(=O)(=O)c2cccc(NC(=O)CCN)c2)C(=O)N2CCNCC2)c1 [Inhibitor 27]
7.51 | CNC(=O)CCCC1CCN(C(=O)[C@H](Cc2cccc(C(=N)N)c2)NS(=O)(=O)c2cccc(N3CCCCC3=O)c2)CC1 [Inhibitor 30]
7.96 | CNC(=O)CCCC1CCN(C(=O)[C@H](Cc2cccc(C(=N)N)c2)NS(=O)(=O)c2cccc(-c3ccc(N)nc3)c2)CC1 [Inhibitor 46]
6.93 | N=C(N)c1cccc(C[C@H](NS(=O)(=O)c2cccc(NC(=O)CCO)c2)C(=O)N2CCC(CCN)CC2)c1 [Inhibitor 37]
7.80 | CNC(=O)CCCC1CCN(C(=O)[C@H](Cc2cccc(C(=N)N)c2)NS(=O)(=O)c2cccc(NC(=O)C3CNC3)c2)CC1 [Inhibitor 38]
7.63 | CNC(=O)CCCC1CCN(C(=O)[C@H](Cc2cccc(C(=N)N)c2)NS(=O)(=O)c2cccc(-c3ccc(C(C)C)cc3)c2)CC1 [Inhibitor 44]
